The values that follow come from PubChem BioAssay (NCI).

What all share (test): NCI tumour cell line growth inhibition, 48 h
Experiment [1] relates to SW-620 colon.
The subject of experiment [2] is SK-MEL-28 melanoma.
Experiment [3] concerns MDA-MB-231 breast.
The subject of experiment [4] is MOLT-4 leukemia.
Experiment [5] relates to ACHN renal.
The test system of experiment [6] is HL-60(TB) leukemia.
In experiment [7] the test system is SF-295 CNS.
Experiment [8] concerns DU-145 prostate.
In experiment [9] the test system is PC-3 prostate.
In experiment [10] the test system is OVCAR-8 ovarian.

“And” between values parts separate entries of the source, which are not always exact repeats. Equal values may be shown once.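 48-hour exposure; five concentrations; linearly interpolated endpoints. The concentration for 50% growth inhibition is given as GI50. TGI: concentration producing complete growth inhibition.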 Some results are limits rather than exact numbers.

In the case of `N#CC(C#N)=C1CCOc2ccc(F)cc21`, the GI50 in experiment [1] is 29.6 µM; in [2] it was over 100 µM; in experiment [3], 13 µM; in experiment [4], 16.2 µM; in experiment [5], 13.3 µM; in [6], 66.5 µM. Moreover, the GI50 in [7] was 16.9 µM; in experiment [8], 14 µM; in experiment [9], 13.9 µM; in [10] it was 19 µM. For the same compound, the TGI was over 100 µM in experiment [1]; over 100 µM in experiment [2]; 25.7 µM in experiment [3]; 29.7 µM in experiment [4]; 26 µM in experiment [5]; over 100 µM in [6]. Also, the TGI in experiment [7] is 41 µM; in experiment [8] it was 34.6 µM; in experiment [9], 26.8 µM; in experiment [10] it was 43.7 µM.

On to `O=C1CC(c2ccccc2)Cc2nc3ccc(Br)cc3cc21` (centres undefined), for which the GI50 was 0.362 µM in [1]; 1.34 µM in [2]; 0.65 µM in [3]; 0.0639 µM in [4]; 0.498 µM in experiment [5]; 0.235 µM in experiment [6]. Further, the GI50 in [7] was 0.265 µM; in [8], 0.209 µM; in experiment [9], 0.296 µM; in experiment [10], 0.4 µM. The TGI in experiment [1] was over 100 µM; in experiment [2] it was over 100 µM; in experiment [3], 96.3 µM; in experiment [4], over 100 µM; in [5], over 100 µM; in experiment [6], 0.672 µM. The TGI was 28.3 µM in [7], over 100 µM in experiment [8], over 100 µM in [9] and over 100 µM in experiment [10].

As for `COc1ccc(C2CC(c3ccc(Nc4ccnc5cc(Cl)ccc45)cc3)=NN2C=O)cc1` (centres undefined), the GI50 in experiment [1] is 35.8 µM; in [2] it was 20.9 µM; in [3], 20.1 µM; in experiment [4] it was 2.55 µM; in experiment [5], 7.02 µM; in [6], 2.23 µM. Besides, the GI50 was 24.8 µM in experiment [7], 38 µM in experiment [8], 9.43 µM in experiment [9] and 69.8 µM in experiment [10]. In addition, the TGI in experiment [1] was over 100 µM; in experiment [2], 90.9 µM; in experiment [3] it was over 100 µM; in experiment [4], 16.7 µM; in experiment [5], over 100 µM; in experiment [6], 5.16 µM. The TGI in experiment [7], in experiment [8], in experiment [9] and in [10] was over 100 µM throughout.

For the compound `COc1ccc2c3c1OC1C(OC)(OC)C=C[C@@]4(Br)[C@@H](C2)N(CC2CC2)CC[C@]314` (some centres undefined), the TGI in experiment [1], in [2], in experiment [3], in experiment [4], in experiment [5] and in [6] was over 100 µM throughout. In addition, the TGI in experiment [7], in experiment [8], in experiment [9] and in experiment [10] was over 100 µM in each case.

In the case of `COc1cc([N+](=O)[O-])c(OC)cc1-c1nc2sc(C)cn2c1/C(N)=N/C(=N)N`, the GI50 was 5.78 µM in experiment [1]; 7.02 µM in [2]; 16.1 µM in experiment [3]; over 100 µM in experiment [4]; 50.2 µM in [5]; over 100 µM in experiment [6]. Moreover, the GI50 in experiment [7] was 16.6 µM; in [8], 16.1 µM; in experiment [9], 45.9 µM; in experiment [10], 35.7 µM. Besides, the TGI in experiment [1] was over 100 µM; in experiment [2], over 100 µM; in experiment [3], 45.1 µM; in experiment [4] it was over 100 µM; in experiment [5] it was over 100 µM; in experiment [6], over 100 µM. The TGI in experiment [7], in [8], in [9] and in experiment [10] was over 100 µM throughout.

As to `CCc1cnn2c(NCc3ccc[n+]([O-])c3)cc(N3CCCC[C@H]3CCO)nc12`, the GI50 is < 0.01 µM and 0.00322 µM in experiment [1]; < 0.01 µM and 0.00493 µM in experiment [2]; < 0.01 µM and 0.0042 µM in experiment [3]; < 0.01 µM and 0.00393 µM in experiment [4]; < 0.0155 µM and 0.0132 µM in experiment [5]; < 0.01 µM and 0.00319 µM in experiment [6]. The GI50 in [7] is < 0.0129 µM and 0.00732 µM; in experiment [8] it was < 0.0127 µM and 0.00728 µM; in experiment [9], < 0.0132 µM and 0.00762 µM; in [10], < 0.01 µM and 0.00446 µM. The TGI was over 100 µM in experiment [1]; 0.0297 µM and 0.0713 µM in experiment [2]; over 100 µM in experiment [3]; under 0.0136 µM in experiment [4]; over 10 µM in experiment [5]; < 0.01 µM and 0.0112 µM in experiment [6]. Besides, the TGI in [7] is 0.0962 µM and 0.0602 µM; in experiment [8], over 10 µM; in [9] it was 0.0792 µM and 0.111 µM; in experiment [10], over 100 µM.

For the compound `COC(=O)c1ccc(/C=C(\c2ccc([N+](=O)[O-])o2)S(=O)(=O)c2ccc(NC(C)=O)cc2)o1`, the TGI in experiment [1] turned out to be 11.8 µM; in [2], 17.6 µM; in experiment [3] it was 5.77 µM; in [4], 7.76 µM; in [5], 11.1 µM; in experiment [6], 8.69 µM. For the same compound, the TGI in [7] came out at 32.7 µM; in experiment [8], 21.9 µM; in experiment [9] it was 29.8 µM; in [10], 11.8 µM.

Regarding `Cn1cc(C2=C(c3cn(-c4ccccc4)c4ccccc34)C(=O)NC2=O)c2ccccc21`, the GI50 is 9.68 µM in experiment [1]; 22.3 µM in experiment [2]; over 23.3 µM in experiment [3]; 9.59 µM in experiment [4]; 17.3 µM in experiment [5]; 8.91 µM in [6]. Moreover, the GI50 in experiment [7] is 13.3 µM; in experiment [8] it was over 25 µM; in experiment [9], 9.86 µM; in [10] it was 19.5 µM. For the same compound, the TGI in experiment [1], in [2], in experiment [3], in experiment [4], in [5] and in experiment [6] was over 25 µM in each case. For the same compound, the TGI in experiment [7], in experiment [8], in experiment [9] and in [10] was over 25 µM in each case.

For `COc1ccc(CCN(CC(=O)N(CC(N)=O)C2CCC[C@@H]2OCc2ccccc2)C(=O)CN(C(=O)CN(CCc2ccc(Cl)cc2)C(=O)CN(C(=O)CN(C)Cc2ccccc2F)[C@H](C)C2CCCCC2)[C@H](C)C2CCCCC2)cc1OC` (some centres undefined), the GI50 in [1] was 2.56 µM; in experiment [2], 1.89 µM; in [3] it was 2.89 µM; in [4], 0.689 µM; in [5], 2.05 µM; in [6], 1.21 µM. Further, the GI50 in experiment [7] was 1.16 µM; in experiment [8], 2.42 µM; in [9], 1.37 µM; in experiment [10], 2.82 µM. The TGI was over 50 µM in experiment [1]; over 50 µM in [2]; over 50 µM in [3]; 2.46 µM in [4]; over 50 µM in [5]; 3.24 µM in experiment [6]. For the same compound, the TGI is 3.49 µM in experiment [7], over 50 µM in [8], over 50 µM in experiment [9] and over 50 µM in experiment [10].

On to `COCCOC1=CC(=O)c2c(O)ccc(O)c2C1=O`, for which the GI50 in experiment [1] was 1.32 µM; in experiment [2], 1.75 µM; in [3], 2.45 µM; in experiment [4], 1.44 µM; in [5], 1.63 µM; in [6], 0.305 µM. In addition, the GI50 was 2.06 µM in experiment [7], 0.5 µM in experiment [8] and 2.67 µM in experiment [9]. The TGI was 6.55 µM and 3.18 µM in experiment [1]; 2.9 µM and 3.37 µM in [2]; 3.23 µM and 6.14 µM in experiment [3]; 8.03 µM and 3.53 µM in experiment [4]; 3.41 µM and 3.14 µM in [5]; 2.26 µM and 1.04 µM in experiment [6]. Further, the TGI is 3.09 µM and 3.93 µM in experiment [7]; 2.12 µM and 1.62 µM in experiment [8]; 4.77 µM and 8.28 µM in experiment [9]; 3.49 µM in [10].
